Values of other authors in US20170239173A1, “TRANSDERMAL ABSORPTION ENHANCER AND TRANSDERMAL ABSORPTION ENHANCEMENT AID” (ASAHI KASEI KABUSHIKI KAISHA, priority 2014, published 2017).

Settings: partition coefficient between water and 1-octanol; cited from earlier work

| SMILES | Log P |
| --- | --- |
| N[C@H]1C(O)O[C@H](CO)[C@@H](O)[C@@H]1O (stereo partly drawn) [D-glucosamine] | −2.8 |
| CC(C)(S)[C@@H](N)C(=O)O [D-penicillamine] | −1.8 |
| CCCCCCCCCCCCCC(=O)OC(C)C [IPM, isopropyl myristate] | 7.2 |
| CC[C@H](C)[C@H](N)C(=O)O [L-Isoleucine] | (LogP = −3.69) |
| O=C1O[C@H]([C@@H](O)CO)C(O)=C1O [L-ascorbic acid] | −1.6 |
| C[N+](C)(C)C[C@H](O)CC(=O)[O-] [L-carnitine] | −0.2 |
| N[C@@H](CS)C(=O)O [L-cysteine] | −2.5 |
| CC(=O)N[C@H]1C(O)O[C@H](CO)[C@@H](O)[C@@H]1O (stereo partly drawn) [N-acetyl-D-glucosamine] | −1.7 |
| CCCCCCCC(=O)OCC(COC(=O)CCCCCCC)OC(=O)CCCCCCC [Tricaprylin, glycerin tricaprylate] | 8.9 |
| CC(=O)Nc1ccc(CC(=O)O)cc1 [actarit] | 0.4 |
| CC(=O)SC[C@@H](C)C(=O)N1CCC[C@H]1C(=O)N[C@@H](Cc1ccccc1)C(=O)O [alacepril] | 2.1 |
| C[C@H](N)C(=O)O [alanine] | −3 |
| NC(=O)NC1NC(=O)NC1=O (stereo not shown) [allantoin] | −2.2 |
| CCOC(=O)C1=C(COCCN)NC(C)=C(C(=O)OC)C1c1ccccc1Cl (stereo not shown) [amlodipine] | 3 |
| Nc1cc(-c2ccncc2)c[nH]c1=O [amrinone] | −0.2 |
| OC[C@H]1O[C@@H](Oc2ccc(O)cc2)[C@H](O)[C@@H](O)[C@@H]1O [arbutin] | −0.6 |
| CC(C)(C)NCC(O)CSc1nc(-c2ccc(C(N)=O)s2)cs1 (stereo not shown) [arotinolol] | 2.3 |
| O=C(O)CCCCCCCC(=O)O [azelaic acid] | 1.6 |
| COc1ccc(CCNCC(O)COc2cccc(C)c2)cc1OC (stereo not shown) [bevantolol] | 3 |
| O=C(O)CCCC[C@@H]1SC[C@@H]2NC(=O)N[C@@H]21 [biotin] | 0.3 |

| SMILES | Log P |
| --- | --- |
| CCCC(=O)N1CCCN(c2nc(N)c3cc(OC)c(OC)cc3n2)CC1 [bunazosin] | 2.2 |
| C[C@H](CS)C(=O)N1CCC[C@H]1C(=O)O [captopril] | 0.3 |
| C[C@@](Cc1ccc(O)c(O)c1)(NN)C(=O)O [carbidopa] | −2.2 |
| NS(=O)(=O)c1cc(C2(O)NC(=O)c3ccccc32)ccc1Cl (stereo not shown) [chlorthalidone] | 0.9 |
| CCOC(=O)[C@H](CCc1ccccc1)N[C@H]1CCCN2CCC[C@@H](C(=O)O)N2C1=O [cilazapril] | 0.6 |
| Clc1cccc(Cl)c1N=C1NCCN1 [clonidine] | 1.6 |
| CCOC(=O)[C@H](CCc1ccccc1)N[C@@H](C)C(=O)N(CC(=O)O)C1Cc2ccccc2C1 [delapril] | 1.7 |
| COc1ccc(CCNC[C@H](O)c2ccc(O)cc2)cc1OC [denopamine] | 1.8 |
| CCOC(=O)Oc1ccc(CCNC(=O)[C@H](CCSC)NC(C)=O)cc1OC(=O)OCC [docarpamine] | 2.9 |
| NCCc1ccc(O)c(O)c1 [dopamine] | −1 |
| CCOC(=O)[C@H](CCc1ccccc1)N[C@@H](C)C(=O)N1CCC[C@H]1C(=O)O [enalapril] | −0.1 |
| COc1cc(C)nc(-n2nc(C)cc2OC)n1 [epirizole] | 1.3 |
| COC(=O)[C@@H]1CC2=CC(=O)CC[C@]2(C)[C@@]23O[C@@H]2C[C@@]2(C)[C@@H](CC[C@@]24CCC(=O)O4)[C@H]13 [eplerenone] | 1.4 |
| CC(O)(P(=O)(O)O)P(=O)(O)O [etidronic acid] | −3.7 |
| NC(N)=Nc1nc(CSCCC(N)=NS(N)(=O)=O)cs1 [famotidine] | −0.6 |
| N[C@@H](CCC(=O)N[C@@H](CS)C(=O)NCC(=O)O)C(=O)O [glutathione] | −4.5 |
| COc1ccccc1O [guaiacol] | 1.3 |
| N=C(N)NC(=O)Cc1c(Cl)cccc1Cl [guanfacine] | 2 |
| N[C@@H](Cc1c[nH]cn1)C(=O)O [histidine] | −3.2 |
| NNc1nncc2ccccc12 [hydralazine] | 0.7 |
